Data reported in the supplement of paper PMC10883282.

Key:
Experiment in all cases: relative viability vs DMSO control (72 h) (fraction); higher = more viable cells
[1] = tested on: RD-ES
How it was run: (§1)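 Sarcoma cell lines were grown in 384-well plates seeded toward 80–90% confluence and exposed 24 h later to serially diluted compound. After 72 h at 37 °C and 5% CO2, with 0.1% DMSO vehicle and a 5 µM positive control on the plates, ATPLite was read. Relative viability, given as percent growth averaged over up to triplicate wells, was rescaled so that 1 is full and 0 is none.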

[2] = tested on: SYO-1
How it was run: as §1

[3] = tested on: SK-ES-1
How it was run: as §1

[4] = tested on: G401
How it was run: as §1

[5] = tested on: VA-ES-BJ
How it was run: as §1

[6] = tested on: KHOS-240S
How it was run: as §1

[7] = tested on: HT1080
How it was run: as §1

[8] = tested on: RD
How it was run: as §1

[9] = tested on: SW982
How it was run: as §1

[10] = tested on: SW1353
How it was run: as §1

[11] = tested on: SK-LMS-1
How it was run: as §1

[12] = tested on: MES-SA
How it was run: as §1

C[C@@H](Oc1cc(-c2cnn(C3CCNCC3)c2)cnc1N)c1c(Cl)ccc(F)c1Cl [Crizotinib]
Settings | relative viability
[1], 0.00017 µM | 0.969
[1], 0.00051 µM | 0.96
[1], 0.00152 µM | 0.963
[1], 0.00457 µM | 0.95
[1], 0.01372 µM | 0.963
[1], 0.04115 µM | 0.972
[1], 0.1235 µM | 0.911
[1], 0.3704 µM | 0.745
[1], 1.111 µM | 0.26
[1], 3.333 µM | 0.0918
[1], 10 µM | 0.00543
[2], 0.00017 µM | 0.957
[2], 0.00051 µM | 0.982
[2], 0.00152 µM | 1
[2], 0.00457 µM | 0.99
[2], 0.01372 µM | 0.973
[2], 0.04115 µM | 0.944
[2], 0.1235 µM | 0.855
[2], 0.3704 µM | 0.655
[2], 1.111 µM | 0.346
[2], 3.333 µM | 0.13
[2], 10 µM | -0.00763
[3], 0.00017 µM | 1.03
[3], 0.00051 µM | 1.01
[3], 0.00152 µM | 1.05
[3], 0.00457 µM | 1.052
[3], 0.01372 µM | 1.06
[3], 0.04115 µM | 1.03
[3], 0.1235 µM | 0.979
[3], 0.3704 µM | 0.673
[3], 1.111 µM | 0.0655
[3], 3.333 µM | 0.0452
[3], 10 µM | 0.00363
[4], 0.00017 µM | 1.01
[4], 0.00051 µM | 0.995
[4], 0.00152 µM | 1.01
[4], 0.00457 µM | 1.01
[4], 0.01372 µM | 1.01
[4], 0.04115 µM | 1.01
[4], 0.1235 µM | 0.9894
[4], 0.3704 µM | 0.915
[4], 1.111 µM | 0.745
[4], 3.333 µM | 0.417
[4], 10 µM | 0.000367
[5], 0.00017 µM | 1.06
[5], 0.00051 µM | 1.05
[5], 0.00152 µM | 1.06
[5], 0.00457 µM | 1.06
[5], 0.01372 µM | 1.04
[5], 0.04115 µM | 0.975
[5], 0.1235 µM | 0.899
[5], 0.3704 µM | 0.764
[5], 1.111 µM | 0.641
[5], 3.333 µM | 0.505
[5], 10 µM | 0.00337
[6], 0.00017 µM | 1.04
[6], 0.00051 µM | 1.05
[6], 0.00152 µM | 1.06
[6], 0.00457 µM | 1.05
[6], 0.01372 µM | 1.05
[6], 0.04115 µM | 1.05
[6], 0.1235 µM | 1.04
[6], 0.3704 µM | 0.992
[6], 1.111 µM | 0.771
[6], 3.333 µM | 0.566
[6], 10 µM | 0.0657
[7], 0.00017 µM | 1.07
[7], 0.00051 µM | 1.05
[7], 0.00152 µM | 1.07
[7], 0.00457 µM | 1.09
[7], 0.01372 µM | 1.07
[7], 0.04115 µM | 1.07
[7], 0.1235 µM | 1.06
[7], 0.3704 µM | 1.07
[7], 1.111 µM | 1.01
[7], 3.333 µM | 0.754
[7], 10 µM | 0.00533
[8], 0.00017 µM | 1.08
[8], 0.00051 µM | 1.07
[8], 0.00152 µM | 1.106
[8], 0.00457 µM | 1.09
[8], 0.01372 µM | 1.1
[8], 0.04115 µM | 1.1
[8], 0.1235 µM | 1.09
[8], 0.3704 µM | 0.88
[8], 1.111 µM | 0.626
[8], 3.333 µM | 0.441
[8], 10 µM | 0.00437
[9], 0.00017 µM | 1.04
[9], 0.00051 µM | 1.03
[9], 0.00152 µM | 1.03
[9], 0.00457 µM | 1.05
[9], 0.01372 µM | 1.03
[9], 0.04115 µM | 1.03
[9], 0.1235 µM | 0.954
[9], 0.3704 µM | 0.628
[9], 1.111 µM | 0.328
[9], 3.333 µM | 0.168
[9], 10 µM | 0.00317
[10], 0.00017 µM | 1
[10], 0.00051 µM | 1
[10], 0.00152 µM | 1.018
[10], 0.00457 µM | 0.987
[10], 0.01372 µM | 1.02
[10], 0.04115 µM | 0.996
[10], 0.1235 µM | 1.03
[10], 0.3704 µM | 1.01
[10], 1.111 µM | 0.999
[10], 3.333 µM | 0.679
[10], 10 µM | 0.00907
[11], 0.00017 µM | 1.03
[11], 0.00051 µM | 1.02
[11], 0.00152 µM | 1.01
[11], 0.00457 µM | 1.01
[11], 0.01372 µM | 0.996
[11], 0.04115 µM | 0.921
[11], 0.1235 µM | 0.641
[11], 0.3704 µM | 0.571
[11], 1.111 µM | 0.525
[11], 3.333 µM | 0.335
[11], 10 µM | 0.0176
[12], 0.00017 µM | 0.943
[12], 0.00051 µM | 0.935
[12], 0.00152 µM | 0.943
[12], 0.00457 µM | 0.944
[12], 0.01372 µM | 0.946
[12], 0.04115 µM | 0.969
[12], 0.1235 µM | 0.938
[12], 0.3704 µM | 0.536
[12], 1.111 µM | 0.434
[12], 3.333 µM | 0.27
[12], 10 µM | -0.000833
